Reference: EP0549264A1, “Purified para-nitrobenzyl esterase from bacillus” (OKLAHOMA STATE UNIVERSITY, priority 1991, dated 1993)

molecular target: T1, PNB esterase (Bacillus subtilis, UniProt P37967); experiment: PNB esterase activity assay (HPLC, method of Example 1D), effect of inhibitors; type: biochemical; conditions: not given
T1 construct: A culture of Bacillus subtilis NRRL B-8079 was harvested and frozen by conventional methods; made in house; host or cells: Bacillus subtilis NRRL B-8079 (natural producer; enzyme purified from cell-free extract)
T1 sequence (P37967 1-489): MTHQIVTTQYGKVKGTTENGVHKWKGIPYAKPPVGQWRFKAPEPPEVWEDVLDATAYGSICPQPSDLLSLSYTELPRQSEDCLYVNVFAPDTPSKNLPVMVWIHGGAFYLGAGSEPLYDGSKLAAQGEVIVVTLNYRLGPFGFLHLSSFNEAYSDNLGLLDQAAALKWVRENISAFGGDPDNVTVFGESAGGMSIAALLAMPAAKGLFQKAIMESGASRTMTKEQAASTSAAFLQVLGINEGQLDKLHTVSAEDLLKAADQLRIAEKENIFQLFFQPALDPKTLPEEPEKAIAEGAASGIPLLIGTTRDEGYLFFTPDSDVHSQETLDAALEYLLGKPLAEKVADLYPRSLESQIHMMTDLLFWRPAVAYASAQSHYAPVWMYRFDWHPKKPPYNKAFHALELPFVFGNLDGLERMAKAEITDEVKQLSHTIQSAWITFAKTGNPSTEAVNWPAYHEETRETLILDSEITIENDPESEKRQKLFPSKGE

Molecule | inhibition at 1000 µM [%] | PNB esterase activity inhibited (in words) | Inhibition (%)
OCCS [2-Mercaptoethanol] | 0 |  | 
O=C(O)c1cc(SSc2ccc([N+](=O)[O-])c(C(=O)O)c2)ccc1[N+](=O)[O-] [5,5'-Dithiobis(2-nitrobenzoic acid)] | 69 |  | 
C(=NC1CCCCC1)=NC1CCCCC1 [Dicyclohexyl carbodiimide] | 78 | moderately inhibited | 
CCOC(=O)OC(=O)OCC [Diethylpyrocarbonate] | 100 | strongly inhibited | 
O=C(O)CN(CCN(CC(=O)O)CC(=O)O)CC(=O)O [EDTA, ethylenediamine tetraacetic acid] | 0 |  | 
O=S(=O)([O-])[O-].[Fe+2] [FeSO4] |  |  | 100
[Cl][Hg][Cl] [HgCl₂] |  | moderately inhibited | 100
O=C(NC(Cc1ccccc1)C(=O)Nc1ccc2ccccc2c1)c1ccccc1 (centres unmarked) [N-benzoyl phenylalanine naptylamide] |  | moderately inhibited | 66
O=CC(=O)c1ccccc1 [Phenylglyoxal] | 91 | moderately inhibited | 
O=S(=O)(F)Cc1ccccc1 [Phenylmethylsulfonylfluoride] |  | strongly inhibited | 
CC(=O)[O-].CC(=O)[O-].[Zn+2] [Zn(OCOCH₃)₂] |  |  | 97
Diethyl p-nitrophenylphosphate |  | strongly inhibited | 100

same assay, conditions: summary in words of Table 2; compounds at 1 mM

Molecule | PNB esterase activity inhibited (in words)
O=C(O)c1cc(SSc2ccc([N+](=O)[O-])c(C(=O)O)c2)ccc1[N+](=O)[O-] [5,5'-Dithiobis(2-nitrobenzoic acid)] | moderately inhibited

molecular target: T1, PNB esterase; experiment: Substrate specificity comparison of native and recombinant PNB esterase; type: biochemical; conditions: both native enzyme and enzyme from recombinant Escherichia coli
Description: A 1 ml reaction mixture containing 5 µmoles Bis-Tris-Propane-HCl, pH 6.5, 0.5 µmole substrate (loracarbef PNB ester, or cefaclor PNB ester), and appropriate amounts of enzyme solution was incubated at 37°C in a constant-temperature shaker for 30 minutes The reaction was stopped by the addition of an equal volume of acetonitrile. The mixture was then centrifuged to remove the protein and the supernatant solution was analyzed by high performance liquid chromatography (HPLC) for product formation and substrate disappearance. The HPLC was performed in a C-18 reverse-phase column (Nova-Pak C₁₈ radial-pak cartridge (8 X 100 mm), Millipore Bedford, MA) with a linear gradient formed by Buffer A containing 80% of 1 mM Triethylamine-HCl, pH 2.5 and 20% methanol and Buffer B containing methanol, at a flow rate of 1 ml/minutes
The HPLC system used was a Varian HPLC system including a Vista 5560 unit (Varian Associates, Sugar Land TX) and a model 230-401 auto-sampling injector (Gilson Medical Electronics, Middleton, WI.). The PNB esterase activity was determined by monitoring product formation at 254 nm.
The PNB esterase purified from recombinant Escherichia coli was compared to the native enzyme by molecular weight, Western blot analysis, and substrate specificity.
Measurements of molecular weight gave values of 54,000 for enzyme from the two sources, and identical precipitin bands were obtained when the two enzyme preparations were tested using antibody prepared against native purified esterase. Both enzymes hydrolyzed cefaclor PNB ester, cefaclor nucleus PNB ester, loracarbef PNB ester, and loracarbef nucleus PNB ester. The native PNB esterase and the corresponding PNB esterase produced in recombinant E. coli strains appear functionally identical and structually the same at macroscale.

Molecule | hydrolysis by PNB esterase
N[C@@H](C(=O)N[C@@H]1C(=O)N2C(C(=O)OCc3ccc([N+](=O)[O-])cc3)=C(Cl)CS[C@H]12)c1ccccc1 [cefaclor PNB ester] | hydrolyzed
N[C@@H]1C(=O)N2C(C(=O)OCc3ccc([N+](=O)[O-])cc3)=C(Cl)CS[C@H]12 [cefaclor nucleus PNB ester] | hydrolyzed
N[C@@H](C(=O)N[C@@H]1C(=O)N2C(C(=O)OCc3ccc([N+](=O)[O-])cc3)=C(Cl)CC[C@H]12)c1ccccc1 [loracarbef PNB ester] | hydrolyzed
N[C@@H]1C(=O)N2C(C(=O)OCc3ccc([N+](=O)[O-])cc3)=C(Cl)CC[C@H]12 [loracarbef nucleus PNB ester] | hydrolyzed
